Reference: patent US10183943B2, “Heterocyclic compounds and their use in preventing or treating bacterial infections” (MUTABILIS, priority 2015, dated 2019)

Tests used:
E. coli RGN238 (OXA-1) = test: MIC of compounds alone, broth microdilution; assay type: cell-based; conditions: Escherichia coli; strain RGN238 (E. coli); read-out: MIC compounds of the invention alone
Procedure: (§1) Method 2: MIC of Compounds and Synergy with Ceftazidime Against Bacterial Isolates (Table 2 and 3)
(§2) Compounds of the present invention were assessed against genotyped bacterial strains alone or in combination with the β-lactam ceftazidime (CAZ). In the assays, MICs of said compounds, or of ceftazidime at fixed concentrations of said compounds were determined by the broth microdilution method according to the Clinical Laboratory Standards Institute (CLSI-M7-A7). Briefly, compounds alone according to the invention were prepared in DMSO and spotted (2 μL each) on sterile polystyrene plates (Corning, 3788). Compounds and ceftazidime dilutions were prepared in DMSO and spotted (1 μL each) on sterile polystyrene plates (Corning, 3788). Log phase bacterial suspensions were adjusted to a final density of 5×10^5 cfu/mL in cation-adjusted Mueller-Hinton broth (Becton-Dickinson) and added to each well (98 μL). Microplates were incubated for 16-20 h at 35° C. in ambient air. The MIC of the compounds was defined as the lowest concentration of said compounds that prevented bacterial growth as read by visual inspection. The MIC of ceftazidime at each compound concentration was defined as the lowest concentration of ceftazidime that prevented bacterial growth as read by visual inspection.

[1] = system: E. coli 190317 (TEM-1, SHV-12, CTX-M-15, OXA-1); test: MIC of compounds alone, broth microdilution; assay type: cell-based; conditions: Escherichia coli, read-out: MIC compounds of the invention alone
Procedure: as §1, §2

[2] = system: E. coli 131119 (TEM-1, OXA-48); test: MIC of compounds alone, broth microdilution; assay type: cell-based; conditions: Escherichia coli; strain 131119 (E. coli); read-out: MIC compounds of the invention alone
Procedure: as §1, §2

E. cloacae P99 (AmpC) = test: MIC of compounds alone, broth microdilution; assay type: cell-based; conditions: Enterobacter cloacae; strain P99 (E. cloacae); read-out: MIC compounds of the invention alone
Procedure: as §1, §2

[3] = system: K. pneumoniae BAA-1898 (TEM-1, SHV-11, SHV-12, KPC-2); test: MIC of compounds alone, broth microdilution; assay type: cell-based; conditions: Klebsiella pneumoniae, BAA1898; strain BAA-1898 (K. pneumoniae); read-out: MIC compounds of the invention alone
Procedure: as §1, §2

[4] = system: K. pneumoniae 6299 (TEM-1, SHV-11, OXA-163); test: MIC of compounds alone, broth microdilution; assay type: cell-based; conditions: Klebsiella pneumoniae; strain 6299 (K. pneumoniae); read-out: MIC compounds of the invention alone
Procedure: as §1, §2

[5] = system: P. aeruginosa CIP107051 (TEM-24); test: MIC of compounds alone, broth microdilution; assay type: cell-based; conditions: Pseudomonas aeruginosa; strain CIP107051 (P. aeruginosa); read-out: MIC compounds of the invention alone
Procedure: as §1, §2

AmpC (P99) = AmpC (P99) (Enterobacter cloacae, UniProt P05364); test: β-lactamase inhibitory activity, determination of IC50 (nitrocefin hydrolysis)
OXA-11 = target: T1, OXA-11 (Pseudomonas aeruginosa, UniProt Q06778); test: as above; assay type: biochemical
T1 construct: made in house; host or cells: E. coli

CTX-M-15 = target: T2, CTX-M-15 (Escherichia coli, UniProt Q9EXV5); test: as above; assay type: biochemical; conditions: class (A); nitrocefin 200 μM, 30 min pre-incubation; read-out: IC50 β-lactamase CTX-M-15
T2 construct: made in house; host or cells: E. coli

TEM-1 = target: T3, TEM-1 (Escherichia coli, UniProt P62593); test: as above; assay type: biochemical
T3 construct: made in house; host or cells: E. coli

SHV-1 = target: T4, SHV-1 (Klebsiella pneumoniae, UniProt P0AD64); test: as above; assay type: biochemical
T4 construct: made in house; host or cells: E. coli

AmpC P. aeruginosa = AmpC P. aeruginosa (Pseudomonas aeruginosa, UniProt P24735); test: as above
OXA-48 = target: T5, OXA-48 (Klebsiella pneumoniae, UniProt Q6XEC0); test: as above; assay type: biochemical; conditions: class (D); nitrocefin 200 μM, 30 min pre-incubation; read-out: IC50 β-lactamase OXA-48
T5 construct: made in house; host or cells: E. coli

OXA-1 = target: T6, OXA-1 (Escherichia coli, UniProt P13661); test: as above; assay type: biochemical; conditions: class (D); nitrocefin 200 μM, 30 min pre-incubation; read-out: IC50 β-lactamase OXA-1
T6 construct: made in house; host or cells: E. coli

KPC-2 = target: T7, KPC-2 (Klebsiella pneumoniae, UniProt Q9F663); test: as above; assay type: biochemical; conditions: class (A); nitrocefin 200 μM, 30 min pre-incubation; read-out: IC50 β-lactamase KPC-2
T7 construct: made in house; host or cells: E. coli

OXA-15 = target: T8, OXA-15 (Pseudomonas aeruginosa, UniProt Q51574); test: biochemical
T8 construct: made in house; host or cells: E. coli
T8 sequence (Q51574 22-275): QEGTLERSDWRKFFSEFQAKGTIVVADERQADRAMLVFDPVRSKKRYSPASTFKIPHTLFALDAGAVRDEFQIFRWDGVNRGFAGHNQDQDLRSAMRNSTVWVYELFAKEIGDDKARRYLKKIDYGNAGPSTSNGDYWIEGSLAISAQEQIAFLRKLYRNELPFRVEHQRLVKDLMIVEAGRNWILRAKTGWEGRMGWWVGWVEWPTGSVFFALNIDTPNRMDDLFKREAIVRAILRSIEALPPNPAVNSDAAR

T4 sequence (P0AD64 22-286): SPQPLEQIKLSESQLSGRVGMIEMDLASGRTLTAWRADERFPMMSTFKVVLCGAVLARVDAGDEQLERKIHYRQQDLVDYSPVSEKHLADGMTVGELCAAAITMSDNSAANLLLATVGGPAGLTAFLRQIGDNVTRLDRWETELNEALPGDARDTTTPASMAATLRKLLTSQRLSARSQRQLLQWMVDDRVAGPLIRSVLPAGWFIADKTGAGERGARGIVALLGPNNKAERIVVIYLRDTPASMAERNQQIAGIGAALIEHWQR
T2 sequence (Q9EXV5 entry or part of it): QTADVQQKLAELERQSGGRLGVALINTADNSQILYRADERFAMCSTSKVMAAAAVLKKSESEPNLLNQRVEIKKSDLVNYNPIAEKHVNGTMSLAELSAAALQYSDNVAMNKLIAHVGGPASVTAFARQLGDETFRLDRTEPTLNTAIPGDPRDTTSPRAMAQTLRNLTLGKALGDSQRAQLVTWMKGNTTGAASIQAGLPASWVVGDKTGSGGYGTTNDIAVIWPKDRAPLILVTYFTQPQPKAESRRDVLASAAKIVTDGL
AmpC P. aeruginosa, sequence (P24735 27-397): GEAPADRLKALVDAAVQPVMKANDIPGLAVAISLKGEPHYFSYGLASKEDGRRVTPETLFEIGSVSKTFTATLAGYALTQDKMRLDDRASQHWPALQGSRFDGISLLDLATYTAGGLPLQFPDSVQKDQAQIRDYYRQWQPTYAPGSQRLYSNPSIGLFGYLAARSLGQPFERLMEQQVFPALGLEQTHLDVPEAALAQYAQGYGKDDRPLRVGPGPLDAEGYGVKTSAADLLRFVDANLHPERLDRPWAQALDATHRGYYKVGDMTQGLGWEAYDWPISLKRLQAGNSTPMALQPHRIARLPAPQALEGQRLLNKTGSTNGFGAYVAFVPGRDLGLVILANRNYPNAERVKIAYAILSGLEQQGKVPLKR
T3 sequence (P62593 24-286 limits assumed): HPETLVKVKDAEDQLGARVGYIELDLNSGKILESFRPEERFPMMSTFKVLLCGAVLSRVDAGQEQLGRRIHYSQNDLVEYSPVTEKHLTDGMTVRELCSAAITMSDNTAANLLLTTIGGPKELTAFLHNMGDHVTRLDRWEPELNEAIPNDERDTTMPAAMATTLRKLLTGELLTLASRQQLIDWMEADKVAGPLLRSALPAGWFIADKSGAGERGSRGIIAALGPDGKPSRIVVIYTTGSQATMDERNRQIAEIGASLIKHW
T1 sequence (Q06778 21-266): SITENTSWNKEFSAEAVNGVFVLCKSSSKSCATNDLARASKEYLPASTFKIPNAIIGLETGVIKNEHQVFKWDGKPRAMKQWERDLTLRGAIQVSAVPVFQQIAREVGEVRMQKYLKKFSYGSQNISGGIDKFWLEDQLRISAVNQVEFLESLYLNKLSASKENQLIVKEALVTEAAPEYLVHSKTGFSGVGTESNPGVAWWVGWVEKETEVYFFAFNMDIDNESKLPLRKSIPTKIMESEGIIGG
T6 sequence (P13661 26-276): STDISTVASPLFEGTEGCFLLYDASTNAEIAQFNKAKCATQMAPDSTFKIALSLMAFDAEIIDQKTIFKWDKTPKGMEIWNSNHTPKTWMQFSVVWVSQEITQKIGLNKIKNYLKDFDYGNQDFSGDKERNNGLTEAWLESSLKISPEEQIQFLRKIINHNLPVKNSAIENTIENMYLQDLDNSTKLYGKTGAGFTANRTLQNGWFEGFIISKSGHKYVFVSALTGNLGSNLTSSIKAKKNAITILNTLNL
T5 sequence (Q6XEC0 23-265 limits assumed): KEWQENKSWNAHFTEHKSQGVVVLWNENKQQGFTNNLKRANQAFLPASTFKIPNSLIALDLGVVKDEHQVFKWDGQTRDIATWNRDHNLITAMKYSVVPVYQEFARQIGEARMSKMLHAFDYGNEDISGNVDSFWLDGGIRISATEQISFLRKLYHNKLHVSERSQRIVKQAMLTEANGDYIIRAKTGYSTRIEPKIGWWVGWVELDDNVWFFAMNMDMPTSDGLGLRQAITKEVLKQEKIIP
AmpC (P99), sequence (P05364 21-381): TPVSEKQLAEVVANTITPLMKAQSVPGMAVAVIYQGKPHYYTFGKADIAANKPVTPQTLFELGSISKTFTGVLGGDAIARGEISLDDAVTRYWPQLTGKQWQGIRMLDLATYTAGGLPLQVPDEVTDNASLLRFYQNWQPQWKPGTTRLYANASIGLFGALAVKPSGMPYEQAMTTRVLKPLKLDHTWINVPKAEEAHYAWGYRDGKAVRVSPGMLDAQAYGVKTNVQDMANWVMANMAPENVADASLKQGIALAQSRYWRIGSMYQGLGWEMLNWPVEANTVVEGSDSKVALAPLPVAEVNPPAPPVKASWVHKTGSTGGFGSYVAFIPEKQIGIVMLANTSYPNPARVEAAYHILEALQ
T7 sequence (Q9F663 25-293 limits assumed): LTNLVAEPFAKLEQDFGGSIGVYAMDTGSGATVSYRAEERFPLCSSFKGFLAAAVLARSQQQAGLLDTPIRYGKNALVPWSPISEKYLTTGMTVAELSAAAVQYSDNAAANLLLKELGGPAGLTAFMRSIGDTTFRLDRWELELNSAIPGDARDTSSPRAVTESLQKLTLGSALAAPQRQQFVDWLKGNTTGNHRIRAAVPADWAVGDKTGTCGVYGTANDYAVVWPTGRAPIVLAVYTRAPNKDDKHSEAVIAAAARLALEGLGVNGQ

Compound	MIC (E. coli RGN238 (OXA-1)) [µg/mL]	MIC [1] [µg/mL]	MIC [2] [µg/mL]	MIC (E. cloacae P99 (AmpC)) [µg/mL]	MIC [3] [µg/mL]	MIC [4] [µg/mL]	MIC [5] [µg/mL]	IC50 (AmpC (P99)) [nM]	IC50 (OXA-11) [nM]	IC50 (CTX-M-15) [nM]	IC50 (TEM-1) [nM]	IC50 (SHV-1) [nM]	IC50 (AmpC P. aeruginosa) [nM]	IC50 (OXA-48) [nM]	IC50 (OXA-1) [nM]	IC50 (KPC-2) [nM]	IC50 (OXA-15) [nM]
O=C1N2CC=C(c3cncnc3)C(C2)N1OS(=O)(=O)[O-].[Na+] (stereo not shown) [Example 10, Sodium [4-(pyrimidin-5-yl)-7-oxo-1,6-diazabicyclo[3.2.1]oct-3-en-6-yl] sulfate]	> 32	> 32	16	16	> 32	> 32	> 32	1100	1300	8.3	7.7	21	2600	6.1	200	130	140
O=C1N2CC=C(c3ccccn3)C(C2)N1OS(=O)(=O)[O-].[Na+] (stereo not shown) [Example 11, Sodium [4-(2-pyridyl)-7-oxo-1,6-diazabicyclo[3.2.1]oct-3-en-6-yl]sulfate]	> 32	> 32	> 32	> 32	> 32	> 32	> 32	8900	6400	29	27	56	4600	5.1	1300	1800	310
O=C1N2CC=C(c3cnccn3)C(C2)N1OS(=O)(=O)[O-].[Na+] (stereo not shown) [Example 12, Sodium [4-(pyrazin-2-yl)-7-oxo-1,6-diazabicyclo[3.2.1]oct-3-en-6-yl]sulfate]	> 32	> 32	16	> 32	> 32	> 32	> 32	1400	1200	5.7	3.1	6.9	1600	3.2	350	310	66
Cn1cccc(C2=CCN3CC2N(OS(=O)(=O)[O-])C3=O)c1=O.[Na+] (stereo not shown) [Example 16, Sodium [4-(N-methyl-2-oxo-3-pyridyl)-7-oxo-1,6-diazabicyclo[3.2.1]oct-3-en-6-yl] sulfate]	> 32	> 32	> 32	> 32	> 32	> 32	> 32	7300	7400	100	56	120	7100	10	720	4500	27
O=C1N2CC(c3cnco3)=CC(C2)N1OS(=O)(=O)[O-].[Na+] (stereo not shown) [Example 35, Sodium [3-(oxazol-5-yl)-7-oxo-1,6-diazabicyclo[3.2.1]oct-3-en-6-yl]sulfate]	4		2	8	4	8	> 32	51	300	0.81	2.3	8.4	210	2.5	1400	8.2	74
O=C1N2CC(c3ncon3)=CC(C2)N1OS(=O)(=O)[O-].[Na+] (stereo not shown) [Example 36, Sodium [3-(1,2,4-oxadiazol-3-yl)-7-oxo-1,6-diazabicyclo[3.2.1]oct-3-en-6-yl] sulfate]	4		1	8	8	16	> 32	43	920	1.1	2.3	16	160	2.1	2400	39	660
